# What was measured:
# Group III receptors = conditions: sub-mM concentrations; cited from earlier work
# Group I receptors = conditions: sub-mM concentrations; cited from earlier work
# mGluR2 = mGluR2 (Homo sapiens, UniProt Q14416); conditions: read-out: IC50 against mGluR2; cited from earlier work
# mGluR3 = mGluR3 (Homo sapiens, UniProt Q14832); conditions: read-out: IC50 against mGluR3; cited from earlier work
# [1] = tested on: human neural stem cells (hNSCs)
# Protocol: In one non-limiting example neurogenesis, a neurogenic response, and neurodifferentiation are all measured in an in vitro assay as follows. […] Mitogen-free test media with a positive control is used for neuronal differentiation, and basal media without growth factors serves as a negative control. Neurogenesis is determined, for example, by measuring the proliferation and/or differentiation of the hNSCs in the presence of varying concentrations of test compound compared to the absence of the test compound (negative control). […] Neurodifferentiation is measured, for example, by detecting neurodifferentiation specific expression markers which methods are known in the art.
# (§1) A positive control for neuronal differentiation was used along with basal media without growth factors as a negative control.
# as §1
# NMDA iGlu receptors = conditions: cited from earlier work
# AMPA iGlu receptors = conditions: cited from earlier work
# KA iGlu receptors = conditions: cited from earlier work
# human mGlu3 = human mGlu3 (Homo sapiens, UniProt Q14832); conditions: in vitro, agonist; read-out: EC50 against human mGlu3 receptors; cited from earlier work
# human mGlu2 = human mGlu2 (Homo sapiens, UniProt Q14416); conditions: in vitro, agonist; read-out: EC50 against human mGlu2 receptors; cited from earlier work
# Sequence of human mGlu2 (Q14416 19-872): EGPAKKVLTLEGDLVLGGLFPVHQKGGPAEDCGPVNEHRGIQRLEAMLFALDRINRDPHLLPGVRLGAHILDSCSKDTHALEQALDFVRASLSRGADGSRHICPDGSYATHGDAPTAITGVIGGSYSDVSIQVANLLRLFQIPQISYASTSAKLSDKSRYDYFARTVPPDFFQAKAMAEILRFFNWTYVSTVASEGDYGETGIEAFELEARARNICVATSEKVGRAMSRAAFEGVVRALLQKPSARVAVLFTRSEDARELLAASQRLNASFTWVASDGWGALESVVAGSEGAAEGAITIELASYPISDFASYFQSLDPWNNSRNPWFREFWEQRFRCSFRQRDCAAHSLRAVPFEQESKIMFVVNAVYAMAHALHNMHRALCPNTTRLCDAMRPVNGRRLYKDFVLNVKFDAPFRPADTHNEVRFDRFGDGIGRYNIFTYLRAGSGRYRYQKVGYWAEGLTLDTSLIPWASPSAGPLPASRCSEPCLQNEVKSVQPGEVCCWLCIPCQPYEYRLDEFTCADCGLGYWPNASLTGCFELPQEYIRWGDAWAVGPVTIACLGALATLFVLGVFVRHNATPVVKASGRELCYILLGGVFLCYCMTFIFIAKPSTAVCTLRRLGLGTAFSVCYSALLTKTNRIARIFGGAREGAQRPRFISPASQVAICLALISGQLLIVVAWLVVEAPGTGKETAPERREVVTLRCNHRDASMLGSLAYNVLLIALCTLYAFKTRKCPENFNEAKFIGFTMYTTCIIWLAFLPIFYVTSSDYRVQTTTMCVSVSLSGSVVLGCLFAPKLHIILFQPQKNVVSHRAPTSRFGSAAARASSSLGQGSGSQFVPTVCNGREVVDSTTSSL
# Sequence of mGluR2 (Q14416 19-872): as above
# Sequence of human mGlu3 (Q14832 23-879): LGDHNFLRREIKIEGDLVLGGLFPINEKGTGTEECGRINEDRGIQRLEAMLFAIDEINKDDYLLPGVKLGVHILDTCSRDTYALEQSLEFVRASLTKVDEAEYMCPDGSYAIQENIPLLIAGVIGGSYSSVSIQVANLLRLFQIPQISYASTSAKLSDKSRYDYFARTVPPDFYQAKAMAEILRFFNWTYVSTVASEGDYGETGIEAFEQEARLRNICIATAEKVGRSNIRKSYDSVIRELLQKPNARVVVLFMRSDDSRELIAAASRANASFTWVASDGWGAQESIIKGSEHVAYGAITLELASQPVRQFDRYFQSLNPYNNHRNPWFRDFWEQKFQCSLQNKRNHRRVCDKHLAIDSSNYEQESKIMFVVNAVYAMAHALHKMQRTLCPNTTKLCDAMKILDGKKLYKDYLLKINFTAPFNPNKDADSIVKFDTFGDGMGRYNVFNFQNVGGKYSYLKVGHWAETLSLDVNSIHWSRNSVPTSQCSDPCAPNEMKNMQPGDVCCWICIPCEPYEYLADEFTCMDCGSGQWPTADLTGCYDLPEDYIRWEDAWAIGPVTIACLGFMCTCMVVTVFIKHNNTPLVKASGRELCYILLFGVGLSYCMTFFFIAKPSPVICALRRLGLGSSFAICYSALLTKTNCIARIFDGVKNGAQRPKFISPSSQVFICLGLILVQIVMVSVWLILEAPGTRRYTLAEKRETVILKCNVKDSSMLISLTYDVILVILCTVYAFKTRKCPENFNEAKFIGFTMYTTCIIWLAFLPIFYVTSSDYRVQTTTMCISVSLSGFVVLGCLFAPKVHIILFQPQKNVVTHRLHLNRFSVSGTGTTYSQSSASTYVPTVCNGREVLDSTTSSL
# Sequence of mGluR3 (Q14832 23-879): as above
structure (smiles),measurement,setting,value
"NC1(C(=O)O)CCc2cc(P(=O)(O)O)ccc21 (racemic) [APICA, (RS)-1-amino-5-phosphonoindan-1-carboxylic acid]",activity against Group III receptors,Group III receptors,no appreciable activity
same,activity against Group I receptors,Group I receptors,no appreciable activity
same,IC50,mGluR2,~30 µM
same,IC50,mGluR3,~30 µM
"CCCC[C@H](NC(C)=O)C(=O)N[C@H]1CC(=O)NCCCC[C@@H](C(=O)O)NC(=O)[C@H](Cc2c[nH]c3ccccc23)NC(=O)[C@H](CCCNC(=N)N)NC(=O)[C@@H](Cc2ccccc2)NC(=O)[C@H](Cc2c[nH]cn2)NC1=O [PT-141, bremelanotide]",effect on neuronal differentiation,"[1]; hNSCs, dose response, TUJ-1 staining",promoted neuronal differentiation
same,EC50,"[1]; read-out: EC50, neuronal differentiation, hNSCs, percent of neuronal positive control, basal media values subtracted",0.2 µM
"N[C@](CC1c2ccccc2Oc2ccccc21)(C(=O)O)[C@H]1C[C@@H]1C(=O)O [LY341495, (2S)-2-amino-2-(1S,2S-2-carboxycycloprop-1-yl)-3-(xanth-9-yl)propanoic acid]",activity against NMDA iGlu receptors,NMDA iGlu receptors,substantially inactive
same,activity against AMPA iGlu receptors,AMPA iGlu receptors,substantially inactive
same,activity against KA iGlu receptors,KA iGlu receptors,substantially inactive
Clc1ccc2c(c1)N=C(N1CCNCC1)c1ccccc1N2 [N-desmethylclozapine],neurogenic activity,[1]; in assays as disclosed herein,highly neurogenic
"N[C@@]1(C(=O)O)CO[C@H]2[C@H](C(=O)O)[C@H]21 [LY379268, (−)-2-Oxa-4-aminobicyclohexane-4,6-dicarboxylic acid]",EC50,human mGlu3,< 0.01 µM
same,EC50,human mGlu2,< 0.01 µM

# Source: patent publication US20080108574A1, “MELANOCORTIN RECEPTOR MEDIATED MODULATION OF NEUROGENESIS” (BrainCells, Inc., priority 2006, published 2008)
